Results reported in PMC12136037, “Type II kinase inhibitors that target Parkinson’s disease–associated LRRK2” (Science Advances, 2025).

What was measured:
Assay in all cases: DSF 100 kinase selectivity screen;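 note: compound tested at 20 µM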
Assay type in all cases: binding
[1] = target: T1, ~100 representative kinases (Homo sapiens, UniProt Q8TD08); conditions: protein MAPK15; average of three replicates
T1 construct: Recombinant protein kinase domains with a concentration of 2 μM
T1 sequence (Q8TD08 1-544): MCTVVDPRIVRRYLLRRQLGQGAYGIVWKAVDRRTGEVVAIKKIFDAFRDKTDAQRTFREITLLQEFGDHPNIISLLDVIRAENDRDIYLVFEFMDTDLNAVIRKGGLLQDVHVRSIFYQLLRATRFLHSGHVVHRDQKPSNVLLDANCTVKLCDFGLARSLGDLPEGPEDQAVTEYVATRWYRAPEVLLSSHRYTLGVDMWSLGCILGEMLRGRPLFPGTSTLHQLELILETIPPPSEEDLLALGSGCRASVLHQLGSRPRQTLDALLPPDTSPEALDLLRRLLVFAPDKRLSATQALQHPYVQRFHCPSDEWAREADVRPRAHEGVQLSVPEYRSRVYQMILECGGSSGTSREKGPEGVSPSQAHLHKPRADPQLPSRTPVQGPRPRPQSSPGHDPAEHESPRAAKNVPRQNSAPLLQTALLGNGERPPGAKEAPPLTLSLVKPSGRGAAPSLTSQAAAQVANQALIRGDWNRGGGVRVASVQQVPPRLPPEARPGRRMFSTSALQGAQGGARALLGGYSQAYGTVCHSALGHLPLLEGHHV
Summary of the method: (§1)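 Each kinase domain, at 2 μM, is mixed with 20 μM test compound and SYPRO Orange in Hepes (20 mM, pH 7.5) with 500 mM NaCl. Temperature is then raised at 3°C/min and fluorescence-monitored unfolding yields the melting temperature change, ΔTm in degrees Celsius.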

[2] = target: T2, ~100 representative kinases (Homo sapiens, UniProt P53355); conditions: Protein DAPK1; average of three replicates
T2 construct: Recombinant protein kinase domains with a concentration of 2 μM
T2 sequence (P53355 whole entry, the tested form may be a part): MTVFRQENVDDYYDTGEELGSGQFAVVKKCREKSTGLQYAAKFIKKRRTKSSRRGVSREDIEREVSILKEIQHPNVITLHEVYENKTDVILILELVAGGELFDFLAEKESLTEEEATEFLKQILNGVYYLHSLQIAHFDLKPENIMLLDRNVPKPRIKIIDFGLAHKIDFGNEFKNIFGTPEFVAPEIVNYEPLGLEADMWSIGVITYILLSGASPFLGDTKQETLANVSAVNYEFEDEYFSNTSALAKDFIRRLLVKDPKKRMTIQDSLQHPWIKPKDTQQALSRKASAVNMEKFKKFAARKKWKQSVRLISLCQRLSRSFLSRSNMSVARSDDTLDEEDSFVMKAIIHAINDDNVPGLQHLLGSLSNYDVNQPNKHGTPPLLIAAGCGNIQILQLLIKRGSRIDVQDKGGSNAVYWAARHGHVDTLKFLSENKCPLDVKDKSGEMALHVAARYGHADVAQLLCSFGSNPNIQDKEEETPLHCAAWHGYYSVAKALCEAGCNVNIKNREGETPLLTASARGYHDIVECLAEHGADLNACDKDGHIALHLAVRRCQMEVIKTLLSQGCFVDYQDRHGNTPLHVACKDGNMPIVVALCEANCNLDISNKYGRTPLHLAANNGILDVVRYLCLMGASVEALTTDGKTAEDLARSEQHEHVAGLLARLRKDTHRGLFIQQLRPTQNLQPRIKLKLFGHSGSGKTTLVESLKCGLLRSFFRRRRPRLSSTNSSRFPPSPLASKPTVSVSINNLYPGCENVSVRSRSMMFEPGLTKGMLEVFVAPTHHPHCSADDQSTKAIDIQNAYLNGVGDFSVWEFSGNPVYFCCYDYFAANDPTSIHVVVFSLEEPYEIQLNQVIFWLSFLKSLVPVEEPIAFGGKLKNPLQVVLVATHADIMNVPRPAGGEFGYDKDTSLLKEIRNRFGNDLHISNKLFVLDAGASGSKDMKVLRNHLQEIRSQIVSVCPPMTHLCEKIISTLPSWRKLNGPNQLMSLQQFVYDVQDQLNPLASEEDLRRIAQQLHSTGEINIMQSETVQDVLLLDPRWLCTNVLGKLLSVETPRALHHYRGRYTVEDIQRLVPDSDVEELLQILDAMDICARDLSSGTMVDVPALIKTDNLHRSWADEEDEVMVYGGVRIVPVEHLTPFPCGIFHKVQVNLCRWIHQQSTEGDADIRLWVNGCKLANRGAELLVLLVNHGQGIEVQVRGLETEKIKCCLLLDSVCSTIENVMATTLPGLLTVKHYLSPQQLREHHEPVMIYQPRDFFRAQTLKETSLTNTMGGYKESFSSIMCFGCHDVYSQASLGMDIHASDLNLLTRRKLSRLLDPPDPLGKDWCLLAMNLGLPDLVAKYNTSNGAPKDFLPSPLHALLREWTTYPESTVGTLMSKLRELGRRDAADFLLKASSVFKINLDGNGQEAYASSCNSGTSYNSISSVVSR
Summary of the method: as §1

[3] = target: T3, ~100 representative kinases (Homo sapiens, UniProt Q96L34); conditions: protein MARK4; average of three replicates
T3 construct: Recombinant protein kinase domains with a concentration of 2 μM
T3 sequence (Q96L34 1-752): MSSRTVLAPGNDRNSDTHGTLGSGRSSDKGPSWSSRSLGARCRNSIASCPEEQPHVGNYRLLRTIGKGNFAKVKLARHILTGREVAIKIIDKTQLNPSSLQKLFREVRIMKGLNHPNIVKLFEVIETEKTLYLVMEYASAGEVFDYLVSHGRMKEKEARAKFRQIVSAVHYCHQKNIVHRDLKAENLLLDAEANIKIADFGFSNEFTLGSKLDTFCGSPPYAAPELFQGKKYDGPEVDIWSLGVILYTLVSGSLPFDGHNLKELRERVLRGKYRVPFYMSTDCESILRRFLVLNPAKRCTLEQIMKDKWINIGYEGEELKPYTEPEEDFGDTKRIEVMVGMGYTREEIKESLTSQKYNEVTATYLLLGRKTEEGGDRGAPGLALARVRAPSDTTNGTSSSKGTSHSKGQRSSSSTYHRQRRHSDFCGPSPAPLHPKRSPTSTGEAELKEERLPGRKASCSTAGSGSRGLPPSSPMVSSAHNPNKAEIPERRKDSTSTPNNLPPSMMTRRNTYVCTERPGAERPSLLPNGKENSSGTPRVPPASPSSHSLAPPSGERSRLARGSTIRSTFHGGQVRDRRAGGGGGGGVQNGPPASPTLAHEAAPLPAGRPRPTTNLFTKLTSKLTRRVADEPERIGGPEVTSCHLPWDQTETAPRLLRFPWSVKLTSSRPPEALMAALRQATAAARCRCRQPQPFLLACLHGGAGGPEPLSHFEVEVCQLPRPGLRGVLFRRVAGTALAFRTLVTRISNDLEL
Summary of the method: as §1

[4] = target: T4, ~100 representative kinases (Homo sapiens, UniProt P21802); conditions: protein FGFR2; average of three replicates
T4 construct: Recombinant protein kinase domains with a concentration of 2 μM
T4 sequence (P21802 22-821): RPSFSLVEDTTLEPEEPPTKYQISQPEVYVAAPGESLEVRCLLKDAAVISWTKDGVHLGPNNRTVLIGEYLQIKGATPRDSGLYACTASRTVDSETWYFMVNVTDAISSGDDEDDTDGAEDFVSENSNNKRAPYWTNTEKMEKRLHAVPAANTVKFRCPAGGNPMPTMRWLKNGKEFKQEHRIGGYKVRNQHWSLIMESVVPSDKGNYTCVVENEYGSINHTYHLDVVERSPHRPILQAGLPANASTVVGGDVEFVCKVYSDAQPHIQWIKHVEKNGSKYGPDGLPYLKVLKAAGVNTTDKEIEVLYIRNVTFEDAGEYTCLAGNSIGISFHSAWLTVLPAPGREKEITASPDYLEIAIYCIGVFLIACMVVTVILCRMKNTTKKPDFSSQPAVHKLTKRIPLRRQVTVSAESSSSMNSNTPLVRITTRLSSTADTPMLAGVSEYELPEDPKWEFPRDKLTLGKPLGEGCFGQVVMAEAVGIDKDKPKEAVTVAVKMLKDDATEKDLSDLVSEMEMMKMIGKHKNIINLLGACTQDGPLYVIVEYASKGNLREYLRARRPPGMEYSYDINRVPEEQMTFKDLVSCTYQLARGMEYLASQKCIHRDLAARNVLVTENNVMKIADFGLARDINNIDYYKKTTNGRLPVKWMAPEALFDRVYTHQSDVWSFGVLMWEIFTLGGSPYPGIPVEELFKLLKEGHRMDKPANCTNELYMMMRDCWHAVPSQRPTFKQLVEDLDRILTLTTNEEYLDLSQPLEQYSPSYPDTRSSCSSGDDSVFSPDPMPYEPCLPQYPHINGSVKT
Summary of the method: as §1

[5] = target: T5, ~100 representative kinases (Homo sapiens, UniProt P17948); conditions: protein FLT1; average of three replicates
T5 construct: Recombinant protein kinase domains with a concentration of 2 μM
Summary of the method: as §1

[6] = target: T6, ~100 representative kinases (Homo sapiens, UniProt P34947); conditions: protein GPRK5; average of three replicates
T6 construct: Recombinant protein kinase domains with a concentration of 2 μM
T6 sequence (P34947 whole entry, the tested form may be a part): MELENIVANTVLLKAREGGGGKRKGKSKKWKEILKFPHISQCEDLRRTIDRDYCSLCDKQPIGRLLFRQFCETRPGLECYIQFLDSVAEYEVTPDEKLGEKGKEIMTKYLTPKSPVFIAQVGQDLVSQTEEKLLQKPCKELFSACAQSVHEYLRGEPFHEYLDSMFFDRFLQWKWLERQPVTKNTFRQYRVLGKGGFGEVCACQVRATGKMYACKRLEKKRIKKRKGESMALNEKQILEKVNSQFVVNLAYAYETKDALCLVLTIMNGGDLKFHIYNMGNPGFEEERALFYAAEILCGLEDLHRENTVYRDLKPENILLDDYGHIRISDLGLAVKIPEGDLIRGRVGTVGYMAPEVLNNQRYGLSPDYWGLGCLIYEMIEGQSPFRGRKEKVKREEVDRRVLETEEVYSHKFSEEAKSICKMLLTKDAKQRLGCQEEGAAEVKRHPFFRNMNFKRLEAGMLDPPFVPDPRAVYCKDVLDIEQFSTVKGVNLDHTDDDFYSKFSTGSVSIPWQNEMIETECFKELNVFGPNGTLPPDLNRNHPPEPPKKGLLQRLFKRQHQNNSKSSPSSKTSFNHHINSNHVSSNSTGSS
Summary of the method: as §1

[7] = target: T7, ~100 representative kinases (Homo sapiens, UniProt Q86V86); conditions: protein PIM3; average of three replicates
T7 construct: Recombinant protein kinase domains with a concentration of 2 μM
Summary of the method: as §1

[8] = target: T8, ~100 representative kinases (Homo sapiens, UniProt P51813); conditions: Protein BMX; average of three replicates
T8 construct: Recombinant protein kinase domains with a concentration of 2 μM
T8 sequence (P51813 1-675): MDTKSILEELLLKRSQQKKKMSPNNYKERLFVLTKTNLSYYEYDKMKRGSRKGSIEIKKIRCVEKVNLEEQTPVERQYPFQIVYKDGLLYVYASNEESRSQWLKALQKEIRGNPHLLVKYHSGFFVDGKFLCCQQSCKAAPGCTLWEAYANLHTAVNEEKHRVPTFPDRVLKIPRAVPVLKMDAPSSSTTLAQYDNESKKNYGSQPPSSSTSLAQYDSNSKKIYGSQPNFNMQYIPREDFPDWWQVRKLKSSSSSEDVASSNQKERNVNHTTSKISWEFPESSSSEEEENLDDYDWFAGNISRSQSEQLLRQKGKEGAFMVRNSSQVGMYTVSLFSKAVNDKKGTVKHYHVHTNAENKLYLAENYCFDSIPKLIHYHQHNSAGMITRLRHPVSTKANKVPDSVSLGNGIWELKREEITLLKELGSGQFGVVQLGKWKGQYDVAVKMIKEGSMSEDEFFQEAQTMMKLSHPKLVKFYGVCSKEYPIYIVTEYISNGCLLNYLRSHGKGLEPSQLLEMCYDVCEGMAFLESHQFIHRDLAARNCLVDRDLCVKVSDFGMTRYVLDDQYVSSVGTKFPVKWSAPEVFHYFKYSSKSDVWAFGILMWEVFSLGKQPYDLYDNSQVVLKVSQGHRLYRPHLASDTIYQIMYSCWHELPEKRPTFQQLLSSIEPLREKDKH
Summary of the method: as §1

[9] = target: T9, ~100 representative kinases (Homo sapiens, UniProt Q2M2I8); conditions: Protein AAK1; average of three replicates
T9 construct: Recombinant protein kinase domains with a concentration of 2 μM
T9 sequence (Q2M2I8 whole entry, the tested form may be a part): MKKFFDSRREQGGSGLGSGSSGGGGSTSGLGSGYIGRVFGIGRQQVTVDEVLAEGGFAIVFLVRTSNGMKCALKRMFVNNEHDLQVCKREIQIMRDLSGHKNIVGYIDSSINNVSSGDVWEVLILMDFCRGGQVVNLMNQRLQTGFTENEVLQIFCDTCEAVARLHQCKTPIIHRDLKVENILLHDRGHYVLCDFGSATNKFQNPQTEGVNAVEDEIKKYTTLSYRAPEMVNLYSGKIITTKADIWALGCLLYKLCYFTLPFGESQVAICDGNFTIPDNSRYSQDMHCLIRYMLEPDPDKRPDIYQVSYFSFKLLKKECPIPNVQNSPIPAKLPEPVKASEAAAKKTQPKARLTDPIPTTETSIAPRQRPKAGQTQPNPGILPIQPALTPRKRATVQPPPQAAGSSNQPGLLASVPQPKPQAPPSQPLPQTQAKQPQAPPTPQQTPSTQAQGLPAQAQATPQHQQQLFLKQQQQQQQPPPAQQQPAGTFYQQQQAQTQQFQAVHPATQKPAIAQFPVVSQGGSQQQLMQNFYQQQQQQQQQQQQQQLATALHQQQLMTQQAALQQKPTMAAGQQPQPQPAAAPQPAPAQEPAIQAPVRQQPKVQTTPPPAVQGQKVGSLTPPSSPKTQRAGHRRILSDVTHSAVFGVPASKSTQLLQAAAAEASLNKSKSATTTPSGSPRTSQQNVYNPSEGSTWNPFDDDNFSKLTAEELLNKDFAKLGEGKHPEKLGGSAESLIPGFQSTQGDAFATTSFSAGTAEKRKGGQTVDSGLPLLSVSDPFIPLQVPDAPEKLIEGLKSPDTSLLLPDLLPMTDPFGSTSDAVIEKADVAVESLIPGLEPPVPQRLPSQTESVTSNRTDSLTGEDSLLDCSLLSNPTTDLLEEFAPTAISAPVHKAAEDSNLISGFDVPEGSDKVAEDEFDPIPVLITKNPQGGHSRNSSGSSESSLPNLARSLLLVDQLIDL
Summary of the method: as §1

[10] = target: T10, ~100 representative kinases (Homo sapiens, UniProt O96013); conditions: protein PAK4; average of three replicates
T10 construct: Recombinant protein kinase domains with a concentration of 2 μM
T10 sequence (O96013 whole entry, the tested form may be a part): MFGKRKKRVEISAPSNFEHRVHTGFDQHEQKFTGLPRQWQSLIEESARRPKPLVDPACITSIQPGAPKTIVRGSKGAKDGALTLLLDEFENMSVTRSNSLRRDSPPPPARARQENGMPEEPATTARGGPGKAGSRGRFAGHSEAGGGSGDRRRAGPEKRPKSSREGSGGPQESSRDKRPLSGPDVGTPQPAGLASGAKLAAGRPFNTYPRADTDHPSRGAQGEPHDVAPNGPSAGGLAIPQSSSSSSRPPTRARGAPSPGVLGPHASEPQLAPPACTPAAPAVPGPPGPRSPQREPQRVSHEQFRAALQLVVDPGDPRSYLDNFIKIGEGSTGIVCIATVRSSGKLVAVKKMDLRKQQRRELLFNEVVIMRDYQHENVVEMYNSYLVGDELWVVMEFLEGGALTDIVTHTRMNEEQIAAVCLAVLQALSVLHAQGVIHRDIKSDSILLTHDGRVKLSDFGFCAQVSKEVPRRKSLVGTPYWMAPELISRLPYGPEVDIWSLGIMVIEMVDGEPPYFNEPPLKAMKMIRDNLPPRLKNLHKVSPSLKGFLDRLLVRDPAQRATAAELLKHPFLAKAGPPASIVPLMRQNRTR
Summary of the method: as §1

SMILES	dTm [1] [K]	dTm [2] [K]	dTm [3] [K]	dTm [4] [K]	dTm [5] [K]	dTm [6] [K]	dTm [7] [K]	dTm [8] [K]	dTm [9] [K]	dTm [10] [K]
O=C(Nc1cccc(-c2c[nH]c3ncnc(N4CCOCC4)c23)c1)C1(C(=O)Nc2ccc(F)c(F)c2)CC1 [Compound 17]	10.37	-0.77	3.95	2.62	3.85	0.75	1.09	0.61	3.45	0.06
O=C(Nc1cccc(-c2c[nH]c3ncnc(N4CCOCC4)c23)c1)C1(C(=O)Nc2ccc(F)c(Cl)c2)CC1 [Compound 18]	12.35	-0.23	4.93	4.02	0.43	0.43	1.00	1.13	4.45	0.49
O=C(Nc1cccc(-c2c[nH]c3ncnc(N4CCOCC4)c23)c1)C1(C(=O)Nc2ccc(F)c(Br)c2)CC1 [Compound 19]	11.25	-1.32	5.43	4.16	3.75	0.28	-0.34	0.24	3.23	1.11
Cc1cc(NC(=O)C2(C(=O)Nc3cccc(-c4c[nH]c5ncnc(N6CCOCC6)c45)c3)CC2)ccc1F [Compound 20]	12.42	0.0134	6.75	4.17	-2.83	1.05	1.71	1.40	5.13	-0.11
COc1cc(NC(=O)C2(C(=O)Nc3cccc(-c4c[nH]c5ncnc(N6CCOCC6)c45)c3)CC2)ccc1F [Compound 21]	10.35	-1.16	4.12	2.99	4.43	0.34	-0.0363	0.38	4.69	-0.79
CC(C)(C)c1cccc(NC(=O)C2(C(=O)Nc3cccc(-c4c[nH]c5ncnc(N6CCOCC6)c45)c3)CC2)c1 [Compound 22]	6.32	-2.58	4.58	3.68	2.44	-0.26	-1.29	1.67	-0.91	0.76
O=C(Nc1cccc(-c2c[nH]c3ncnc(N4CCOCC4)c23)c1)C1(C(=O)Nc2ccc(F)cc2F)CC1 [Compound 23]	6.01	-1.28	2.83	2.08	3.92	-0.45	-0.33	0.22	2.93	-0.00913
Cc1cc(F)ccc1NC(=O)C1(C(=O)Nc2cccc(-c3c[nH]c4ncnc(N5CCOCC5)c34)c2)CC1 [Compound 24]	4.07	-1.06	2.55	2.08	4.10	0.16	0.00331	0.32	3.04	-0.47
O=C(Nc1cccc(-c2c[nH]c3ncnc(N4CCOCC4)c23)c1)C1(C(=O)Nc2cc(Br)c(F)cc2F)CC1 [Compound 25]	3.06	-0.48	-6.37	3.32	1.86	0.32	-0.17	1.31	-2.54	0.88
O=C(Nc1cccc(-c2c[nH]c3ncnc(N4CCOCC4)c23)c1)C1(C(=O)Nc2ccc(F)c(Br)c2F)CC1 [Compound 26]	5.05	-0.65	1.86	3.74	2.22	0.25	0.88	-0.35	-0.08	0.78
O=C(Nc1cc(F)cc(Br)c1)C1(C(=O)Nc2cccc(-c3c[nH]c4ncnc(N5CCOCC5)c34)c2)CC1 [Compound 27]	4.52	-3.19	1.77	2.02	1.63	0.40	-0.05	0.52	-2.65	0.52
CC(C)(C)c1cc(NC(=O)Nc2cccc(-c3c[nH]c4ncnc(N5CCOCC5)c34)c2)n(-c2ccc3ncccc3c2)n1 [Compound 28]	14.38	2.32	4.38	10.62	12.33	0.98	4.96	2.95	6.38	0.80
Cc1ccc(-n2nc(C(C)(C)C)cc2NC(=O)Nc2cccc(-c3c[nH]c4ncnc(N5CCOCC5)c34)c2)cc1 [Compound 29]	16.65	2.62	3.91	-0.19	12.63	0.00	0.33	2.21	5.32	1.80
Cc1ccc(-n2nc(C(C)(C)C)cc2NC(=O)Nc2cccc(-c3c[nH]c4nc(Cl)nc(N5CCOCC5)c34)c2)cc1 [Compound 30]	6.72	-3.64	-1.19	-0.31	7.13	-3.24	-1.11	-1.99	0.53	0.13
